Assay results: patent publication US20100087516A1, “ANTIBACTERIAL MACROLACTIN A THAT BACILLUS POLYFERMENTICUS KJS-2 PRODUCED IN” (priority 2007, published 2010)
Values after ≈ are worked out from the molar mass of the structure shown. Read-outs that look alike come from different tables or passages of the source.

Columns and labels:
[1] = system: vancomycin-resistant enterococci (VRE); settings: cited from earlier work
[2] = system: methicillin-resistant Staphylococcus aureu (MRSA); settings: cited from earlier work
Burkholderia cepacia = settings: cited from earlier work
[3] = system: 11 VRE strains, clinically isolated; experiment: Minimal inhibitory concentration (MIC>90) in MH II medium; assay type: cell-based, vancomycin-resistant enterococci; settings: for MIC: Enterococcus, VRE
Protocol: (§1) The MIC (minimal inhibitory concentration) against VRE and MRSA was measured to test antibiotic activity of Macrolactin A produced by Bacillus polyfermenticus KJS-2, which is the strain of the present invention, against the two strains. The strains used for the experiment were 11 VRE strains and 13 MRSA strains, which were clinically isolated. Each strain used for the experiment was cultured in MH II medium at 200 rpm for 6 hours at 37° C., the absorbance of the medium measured at OD600nm using a UV detector, and then 1 ml aliquot of the medium was spread over MH II agar medium and incubated for 16 hours at 37° C. The number of colonies formed on the agar medium after 16 hours of incubation was counted. Each strain used for experiment was cultured in MH II medium at 200 rpm for 6 hours at 37° C., and the absorbance of the medium was measured at OD600nm using a UV detector. The number of cells were calculated based on the ratio of the number of colonies to the absorbance of the medium, and measured by the above process. Each culture medium was diluted to the final cell concentration of 0.25*10^7 cfu/ml and Macrolactin A was dissolved in the solvent DMSO, while ampicillin, teycoplanin, vancomycin and methillin were dissolved in water. To measure the MIC of Macrolactin A or of the four antibiotics, the mixture of the materials listed in Table 5 and Macrolactin A or the mixture of the materials listed in Table 6 and each of the four antibiotics, respectively in a 500 μl eppendorff tub, was incubated at 200 rpm for 16 hours at 37° C., and then absorbance was measured by a UV/Visible Light detector at 600 nm using a Fluorescence Multi-Detection Reader.

[4] = system: 13 MRSA strains, clinically isolated; experiment: as above; assay type: cell-based, methicillin-resistant Staphylococcus aureus; settings: for MIC: Staphylococcus aureus, MRSA
Protocol: as §1

VRE5 = experiment: Bioassay at a gradient of concentration on TSB agar medium; assay type: cell-based, vancomycin-resistant enterococci; settings: solution 5 mg/ml in H2O

For `CC1CCC/C=C/C=C/C(O)CC(O)C/C=C\C=C\C(OC(=O)CC(=O)O)C/C=C/C=C\C(=O)O1` (stereo not shown) [Malonyl-macrolactin A (MMA), Malonyl-macrolactin A], the “antibiotic activity against VRE” value [1] is listed as “excellent antibiotic activity”, the “antibiotic activity against MRSA” value [2] is listed as “excellent antibiotic activity” and the “antibiotic activity against Burkholderia cepacia” value (Burkholderia cepacia) is listed as “excellent antibiotic activity”.
With `CC1(C)S[C@@H]2[C@H](NC(=O)[C@H](N)c3ccccc3)C(=O)N2[C@H]1C(=O)O` [Ampicillin] the MIC ([3]; Average of the 11 VRE strains, read-out: average MIC>90) was 273 µg/mL (≈ 781 µM), the MIC ([3]; VRE1, read-out: MIC>90) was 250 µg/mL (≈ 715 µM) and the MIC ([3]; VRE2, read-out: MIC>90) was 250 µg/mL (≈ 715 µM). It also gave an MIC ([3]; VRE3, read-out: MIC>90) of 250 µg/mL (≈ 715 µM), an MIC ([3]; VRE4, read-out: MIC>90) of 250 µg/mL (≈ 715 µM) and an MIC ([3]; VRE5, read-out: MIC>90) of 250 µg/mL (≈ 715 µM). The MIC ([3]; VRE6, read-out: MIC>90) was 250 µg/mL (≈ 715 µM), the MIC ([3]; VRE7, read-out: MIC>90) was 250 µg/mL (≈ 715 µM) and the MIC ([3]; VRE9, read-out: MIC>90) was 250 µg/mL (≈ 715 µM). For the same compound, the MIC ([3]; VRE10, read-out: MIC>90) was 250 µg/mL (≈ 715 µM), the MIC ([3]; VRE914, read-out: MIC>90) was 250 µg/mL (≈ 715 µM) and the MIC ([3]; VRE915, read-out: MIC>90) was 500 µg/mL (≈ 1430 µM). For the same compound, the MIC ([4]; Average of the 13 MRSA strains, read-out: average MIC>90) was 212 µg/mL (≈ 605 µM), the MIC ([4]; MRSA1, read-out: MIC>90) was 250 µg/mL (≈ 715 µM) and the MIC ([4]; MRSA2, read-out: MIC>90) was 250 µg/mL (≈ 715 µM). It also gave an MIC ([4]; MRSA3, read-out: MIC>90) of 250 µg/mL (≈ 715 µM), an MIC ([4]; MRSA4, read-out: MIC>90) of 250 µg/mL (≈ 715 µM) and an MIC ([4]; MRSA5, read-out: MIC>90) of 250 µg/mL (≈ 715 µM). It also gave an MIC ([4]; MRSA6, read-out: MIC>90) of 250 µg/mL (≈ 715 µM), an MIC ([4]; MRSA7, read-out: MIC>90) of 250 µg/mL (≈ 715 µM) and an MIC ([4]; MRSA8*, read-out: MIC>90) of 125 µg/mL (≈ 358 µM). It also gave an MIC ([4]; MRSA8, read-out: MIC>90) of 125 µg/mL (≈ 358 µM), an MIC ([4]; MRSA9, read-out: MIC>90) of 125 µg/mL (≈ 358 µM) and an MIC ([4]; MRSA10, read-out: MIC>90) of 250 µg/mL (≈ 715 µM). For the same compound, the MIC ([4]; MRSA11*, read-out: MIC>90) was 250 µg/mL (≈ 715 µM) and the MIC ([4]; MRSA11, read-out: MIC>90) was 125 µg/mL (≈ 358 µM).
In the case of `CN[C@H](CC(C)C)C(=O)N[C@H]1C(=O)N[C@@H](CC(N)=O)C(=O)N[C@H]2C(=O)N[C@H]3C(=O)N[C@H](C(=O)N[C@H](C(=O)O)c4cc(O)cc(O)c4-c4cc3ccc4O)[C@H](O)c3ccc(c(Cl)c3)Oc3cc2cc(c3O[C@@H]2O[C@H](CO)[C@@H](O)[C@H](O)[C@H]2O[C@H]2C[C@](C)(N)[C@H](O)[C@H](C)O2)Oc2ccc(cc2Cl)[C@H]1O` [Vancomycin], the MIC ([3]; read-out: MIC>90, VRE1) is reported as 500 µg/mL (≈ 345 µM), the MIC ([3]; read-out: MIC>90, VRE2) is reported as 500 µg/mL (≈ 345 µM) and the MIC ([3]; read-out: MIC>90, VRE3) is reported as 125 µg/mL (≈ 86.3 µM). For the same compound, the MIC ([3]; read-out: MIC>90, VRE4) was 250 µg/mL (≈ 173 µM), the MIC ([3]; read-out: MIC>90, VRE5) was 250 µg/mL (≈ 173 µM) and the MIC ([3]; read-out: MIC>90, VRE6) was 250 µg/mL (≈ 173 µM). It also gave an MIC ([3]; read-out: MIC>90, VRE7) of 250 µg/mL (≈ 173 µM), an MIC ([3]; read-out: MIC>90, VRE9) of 250 µg/mL (≈ 173 µM) and an MIC ([3]; read-out: MIC>90, VRE10) of 125 µg/mL (≈ 86.3 µM). The MIC ([3]; read-out: MIC>90, VRE914) was 125 µg/mL (≈ 86.3 µM), the MIC ([3]; read-out: MIC>90, VRE915) was 250 µg/mL (≈ 173 µM) and the MIC ([3]; read-out: average MIC>90, Average of the 11 VRE strains) was 261 µg/mL (≈ 180 µM). The MIC ([4]; read-out: MIC>90, MRSA1) was 250 µg/mL (≈ 173 µM), the MIC ([4]; read-out: MIC>90, MRSA2) was 125 µg/mL (≈ 86.3 µM) and the MIC ([4]; read-out: MIC>90, MRSA3) was 125 µg/mL (≈ 86.3 µM). The MIC ([4]; read-out: MIC>90, MRSA4) was 125 µg/mL (≈ 86.3 µM), the MIC ([4]; read-out: MIC>90, MRSA5) was 125 µg/mL (≈ 86.3 µM) and the MIC ([4]; read-out: MIC>90, MRSA6) was 250 µg/mL (≈ 173 µM). For the same compound, the MIC ([4]; read-out: MIC>90, MRSA7) was 250 µg/mL (≈ 173 µM), the MIC ([4]; read-out: MIC>90, MRSA8) was 125 µg/mL (≈ 86.3 µM) and the MIC ([4]; read-out: MIC>90, MRSA8*) was 125 µg/mL (≈ 86.3 µM). For the same compound, the MIC ([4]; read-out: MIC>90, MRSA9) was 250 µg/mL (≈ 173 µM), the MIC ([4]; read-out: MIC>90, MRSA10) was 250 µg/mL (≈ 173 µM) and the MIC ([4]; read-out: MIC>90, MRSA11) was 250 µg/mL (≈ 173 µM). For the same compound, the MIC ([4]; read-out: MIC>90, MRSA11*) was 31.2 µg/mL (≈ 21.6 µM), the MIC ([4]; read-out: average MIC>90, Average of the 13 MRSA strains) was 175 µg/mL (≈ 121 µM) and the “inhibition of VRE5 on TSB agar medium” value (VRE5) was “not inhibited”.
With Teicoplanin the “average MIC>90” value ([3]; Average of the 11 VRE strains) was 125 µg/mL, the “MIC>90” value ([3]; VRE1) was 250 µg/mL and the “MIC>90” value ([3]; VRE2) was 250 µg/mL. The “MIC>90” value ([3]; VRE3) was 62.5 µg/mL, the “MIC>90” value ([3]; VRE4) was 125 µg/mL and the “MIC>90” value ([3]; VRE5) was 125 µg/mL. The “MIC>90” value ([3]; VRE6) was 125 µg/mL, the “MIC>90” value ([3]; VRE7) was 125 µg/mL and the “MIC>90” value ([3]; VRE9) was 62.5 µg/mL. For the same compound, the “MIC>90” value ([3]; VRE10) was 62.5 µg/mL, the “MIC>90” value ([3]; VRE914) was 62.5 µg/mL and the “MIC>90” value ([3]; VRE915) was 125 µg/mL. The “average MIC>90” value ([4]; Average of the 13 MRSA strains) was 104.6 µg/mL, the “MIC>90” value ([4]; MRSA1) was 250 µg/mL and the “MIC>90” value ([4]; MRSA2) was 125 µg/mL. For the same compound, the “MIC>90” value ([4]; MRSA3) was 125 µg/mL, the “MIC>90” value ([4]; MRSA4) was 125 µg/mL and the “MIC>90” value ([4]; MRSA5) was 125 µg/mL. For the same compound, the “MIC>90” value ([4]; MRSA6) was 125 µg/mL, the “MIC>90” value ([4]; MRSA7) was 250 µg/mL and the “MIC>90” value ([4]; MRSA8) was 62.5 µg/mL. For the same compound, the “MIC>90” value ([4]; MRSA8*) was 31.25 µg/mL, the “MIC>90” value ([4]; MRSA9) was 15.63 µg/mL and the “MIC>90” value ([4]; MRSA10) was 31.25 µg/mL. The “MIC>90” value ([4]; MRSA11) was 31.25 µg/mL and the “MIC>90” value ([4]; MRSA11*) was 62.5 µg/mL.
